Assay results as given in patent publication US20230094832A1, “ANTIBODY-DRUG CONJUGATE COMPRISING IMMUNE CHECKPOINT INHIBITOR AND EXOSOME SECRETION INHIBITOR, AND PHARMACEUTICAL COMPOSITION COMPRISING SAME” (Research & Business Foundation Sungkyunkwan University, priority 2020, published 2023).

Key:
[1] = test system: melanoma cell line B16F10; assay: Cytotoxicity evaluation by MTT assay; format: cell-based; settings: B16F10 cells, 24 hours treatment at each concentration, FIG. 4
Method: In order to evaluate the cytotoxicity of Ab-VC-AMB prepared in Example 1, a melanoma cell line B16F10 (1×10^4) was attached to a 96-well plate, and after 24 hours, and the cell line was treated with Ab, AMB, AMB+Ab, and Ab-VC-AMB at each concentration, respectively. After 24 hours, the number of living cells was calculated by MTT assay. For this, 5 mg/ml MTT reagent was diluted 1/10 in the medium, and then 200 μl was added to each well of the 96-well plate. After the cells were cultured in an incubator for 1.5 hours, the MTT reagent was removed, and 200 μl of DMSO was added to each well of the 96-well plate. After the cells were cultured at room temperature for 30 minutes, cell viability was calculated by confirming the absorbance at 570 nm.

B16F10 melanoma tumors = assay: Therapeutic efficacy (tumor volume) in B16F10 cancer animal model; format: in vivo; settings: B16F10 mice, FIGS. 5 and 6
Method: (§1) In order to evaluate the therapeutic efficacy of Ab-VC-AMB prepared in Example 1 in a disease animal model, a cancer animal model was produced by subcutaneously inoculating B16F10 (1×10^6 cells), which is a melanoma cell line, into mice and allowing tumors to grow for 10 days (Day 0). Thereafter, on days 1, 4, 7 and 10, Ab-VC-AMB, saline, an antibody (Ab) or AMB was injected intravenously into the cancer animal model (Ab 5 mg/kg, AMB 10 mg/kg, Ab-VC-AMB 5 mg/kg), and then the therapeutic efficacy was evaluated for 11 days.

[2] = test system: major organs (liver, lungs, spleen, kidneys, and heart) and cancer tissue; assay: Histopathological evaluation by H&E staining; format: in vivo, mice; settings: cancer tissue compared to the control, FIG. 8
Method: A histopathological evaluation was performed by removing major organs and cancer tissue and staining the tissue by a hematoxylin and eosin (H&E) staining method. For this purpose, the major organs (liver, lungs, spleen, kidneys, and heart) and cancer tissue were removed, placed in a cassette, and fixed in a fixative solution. Then, after a paraffin block was prepared, a sample was prepared with a thickness of 6 μm. After the sample was stained with a Harris hematoxylin staining solution and an eosin-phloxine staining solution, the sample was observed through a slide scanner.

[3] = parameters: species or system mice; settings: mouse, in vivo, iv
Method: as §1

[4] = test system: PD-L1 on the surface of exosomes; assay: Exosomal PD-L1 quantified by ELISA; format: in vivo, mice; settings: plasma exosomes after efficacy study, compared to the other groups, FIG. 10
Method: (§2) To evaluate the ability of Ab-VC-AMB prepared in Example 1 to inhibit the secretion of exosomes, after the animal model for which the therapeutic efficacy evaluation was completed was sacrificed, plasma was isolated, and exosomes were isolated and extracted using an exosome isolation kit (Invitrogen total exosome isolation reagent). The amount of protein was measured by performing BCA analysis (bicinchoninic acid assay) on the isolated exosomes. Albumin standards diluted to various concentrations and 150 μl of an unknown sample whose protein amount was not known were put into a 96-well plate, respectively. 150 μl of a working reagent containing bicinchoninic acid from a BCA protein […] kit (Pierce) was placed in each well containing each sample, and the resulting mixture was shaken and mixed well, and then incubated at 37° C. for 2 hours. Thereafter, the protein concentration of exosomes was calculated by measuring the absorbance at 562 nm using a microplate reader.
In addition, PD-L1 on the surface of exosomes, which is a factor known to suppress the activity of T cells, was quantified through ELISA analysis. A 96-well plate was coated with 2 μg/ml PD-L1 antibody incubated at 4° C. for 16 hours […]. […] Absorbance at 450 nm was measured using a microplate reader.

exosomes in plasma = assay: Exosomal total protein amount in plasma exosomes (BCA analysis); format: in vivo, mice; settings: plasma exosomes after efficacy study, compared to the Ab control, FIG. 9
Method: as §2

Row | SMILES | cytotoxicity (cell viability) [1] | volume of cancer compared to the Ab control (B16F10 melanoma tumors; i.v. on days 1, 4, 7 and 10, Ab-VC-AMB 5 mg/kg vs Ab 5 mg/kg, 11 days) | cancer volume compared to the control to which saline was administered (B16F10 melanoma tumors; i.v. on days 1, 4, 7 and 10, Ab-VC-AMB 5 mg/kg, evaluated for 11 days) | cell death area in the cancer tissue (H&E) [2] | changes in body weight (toxicity) [3] | exosomal PD-L1 level [4] | amount of exosomal protein (exosomes in plasma)
1 | COC(c1ccccc1)(c1ccccc1)[C@H](Oc1nc(C)cc(C)n1)C(=O)O [AMB, ambrisentan, reference compound] | does not have a direct relationship with toxicity affecting cells | – | – | – | – | – | –
2 | COC(c1ccccc1)(c1ccccc1)C(Oc1nc(C)cc(C)n1)C(=O)OCc1ccc(NC(=O)C(CCCNC(N)=O)CC(=O)C(NC(=O)CCCCCN2C(=O)CC(SC)C2=O)C(C)C)cc1 (centres unmarked) [Ab-VC-AMB] | high biocompatibility | about 45% | 24% | a large cell death area in the cancer tissue was observed compared to the control | does not show toxicity | tendency to decrease remarkably | statistically significant low amount of exosomal protein compared to the Ab control
